{"source": "patent EP0332332B1", "about": "“Hypoglycemic thiazolidinedione derivatives” (PFIZER INC., priority 1988, dated 1989)", "tested_on": "C57 BL/6J-ob/ob mice", "assay": "test for hypoglycemic effect in ob/ob mice", "format": "in vivo", "details": "plasma glucose on day 5, ob/ob mice dosed daily for five days, 50 mg/kg in 0.25% w/v methyl cellulose; value given as an example (e.g.)", "text": "The present compounds of the formula (I) are readily adapted to clinical use as hypoglycemic or hypocholesterolemic agents. The activity required for this former clinical use is defined by the test for hypoglycemic effect in ob/ob mice by the following procedure:\nFive to eight week old C57 BL/6J-ob/ob mice (obtained from Jackson Laboratory, Bar Harbor, Maine) were housed five per cage under standard animal care practices. After a one week acclimation period, the animals were weighed and 25 microliters of blood was collected via an ocular bleed prior to any treatment. The blood sample was immediately diluted 1:5 with saline containing 2.5 mg/ml sodium fluoride and 2% sodium heparin, and held on ice for metabolite analysis. […] The supernatant was analyzed for glucose, for example, by the ABA 200 Bichromatic Analyzer™, using the A-gent™ glucose UV reagent system* (hexokinase method) using 20, 60 and 100 mg/dl standards. Plasma glucose was then calculated by the equation, Plasma glucose (mg/dl) = Sample value x 5 x 1.67 = 8.35 x Sample value [formula] where 5 is the dilution factor and 1.67 is the plasma hematocrit adjustment (assuming the hematocrit is 40%). ™A registered trademark of Abbott Laboratories, Diagnostics Division, 820 Mission Street, So. […]"}
{"smiles": "CC1(COc2ccc(CC3SC(=O)NC3=O)cc2)CCCCC1", "note": "(stereo not shown) [positive control, ciglitazone]", "values": [{"measurement": "glucose levels", "result": "~130", "unit": "mg/dL"}]}
